Results from patent US20240299353A1, “COMPOSITIONS AND METHODS FOR TREATING […] 5-MEO-DMT” (Alvarius Pharmaceuticals Ltd., priority 2021, published 2024).

What was measured:
5-HT1AR = experiment: Western blot of 5-HT1AR in brain regions, chronic cocaine ± 5-MeO-DMT; type: in vivo, Male Wistar rats
Text: Male Wistar rats aged 7 weeks were acclimatized to the facility for 1 week prior to the beginning of the study. […] Animals were euthanized 23- or 119-hours following vehicle or 5-MeO-DMT administration.
Following euthanasia brain regions of interest were isolated. Briefly, the olfactory bulbs were removed before the brain was placed in a rat brain matrix (FIG. 2A). Sterile blades were inserted at positions 2 and 3 (FIG. 2B) to extract a coronal slice containing the Bregma+˜0.2-+˜2.2 coordinates (FIG. 2C). From this tissue slice a blunted 12 G needle was used to punch dissect the NAc and dorsal striatum (DS) (FIG. 2D-2E) identified using the rat brain atlas (Panxinos and Watson 2nd edition). The PFC, hippocampus (Hip) and amygdala (Amyg) were then blunt dissected (FIG. 3A-3D). All regions were frozen in liquid nitrogen and stored at −80° C. until processed.
These treatment groups were used for the molecular assessment of addiction-linked markers.
Determination of protein concentration—a bicinchoninic acid assay (BCA, ThermoFisher) was conducted to determine the total protein concentration in tissue lysates following manufacturer's instructions. Briefly, bovine serum albumin (BSA) standards were prepared in a serial dilution (0-2.0 mg protein/ml) and 200 μl working reagent (50:1, reagent A: reagent B) was added to each of the standards and samples in a 96 well plate (Greiner). For tissue lysates a 1:10 dilution was performed with cell lysis buffer to ensure absorbance values lay within the working range established by the standards. All samples and standards were added in duplicate. The plate was covered and incubated for 30 mins at 37° C. before absorbance was read at 562 nm on a plate reader (SpectraMax M3). The absorbance values were used to form a standard curve of known protein concentrations and protein concentration of samples were derived using the equation of the line. All samples were standardized to the lowest protein concentration using distilled H20 (dH2O).
SDS-PAGE and Western Blotting—Following equalisation of protein concentrations, 6× sample loading buffer (15% SDS, 15% […], 50% glycerol, 0.01% bromophenol blue, […]) was added to each sample using a dilution factor of 1:5 of the total volumes before boiling at 100° C. for 5 mins. Samples were stored at −20° C. until use. One dimensional sodium-dodecyl-sulphate polyacrylamide gel electrophoresis (SDS-PAGE) was used for protein separation based on molecular weight. The percentage of acrylamide in the resolving or stacking gel was determined by the molecular weight of the protein of interest. In this instance all gels consisted of a 5% stacking gel and a 10% resolving gel with the exception of mGluR5, G9a (8%) and H3K9Me2 (12%). 20 μg of protein was loaded and resolved using SDS-PAGE. Gel electrophoresis was conducted at 80V while the protein was in the stacking gel, once it migrated to the resolving gel the voltage was increased to 120V and ran for 90 mins. Samples were transferred to a 0.45 μm polyvinylidene difluoride (PVDF) membrane (Analab) for 1 hour at 100V and blocked in 5% milk blocking solution made in tris-buffered saline containing tween®-20 (TBS-T, Sigma) for 90 mins. Primary antibodies (FIG. 5) were diluted in 5% BSA in TBS-T and incubated with membranes overnight at 4° C. or for 2 hours at room temperature. After incubation with primary antibodies the membranes were washed in TBS-T for 4×10 minutes before incubation with 1:2000 anti-rabbit and 1:2000 anti-mouse Alexa Fluro® conjugated secondary antibodies (Invitrogen) in 2% milk for 1 hour at room temperature. Membranes were washed in TBS-T for 4×10 minutes and in TBS for 1×10-minute wash. Proteins were visualized using Odyssey® infrared imaging system. Protein expression was quantified using Image Studio Lite (Version 5.2) and expression intensities were normalized to a house keeping protein, α-Tubulin or β-actin.

rats = experiment: Forced swim test; type: in vivo; settings: cohort 2; for immobility or time spent swimming: between treatment groups
Experimental: In this instance the animals were 9 weeks old at the initiation of drug exposures and we selected just the high (20 mg/kg) dose of 5-MeO-DMT from the molecular study. […] Due to the number of behavioral paradigms to be completed by each animal we divided the study into two cohorts staggered by two weeks with 8 animals coming from each cohort to make up the 16 animals for each treatment group. 23 hours after 5-MeO-DMT administration the animals were introduced to the open field arena where they were allowed to freely explore the area for 5 mins. Following the open field test (OFT) animals were returned to their home cage for 2 hours before beginning either the elevated plus maze (EPM) or pre-pulse inhibition (PPI) testing. 24 hours after completing the OFT animals were returned to the chamber for the first session in novel object (NO1) testing. The animals were returned to their home cage for 2 hours before beginning the EPM or PPI test. 24 hours after NO1 the animals returned to the open field chamber for the second session in novel object (N02) testing. After completing N02 animals were returned to their home cage for 2 hours before they underwent the forced swim test (FST) pre-test. 24 hours later the animals were returned to the FS cylinders for the FST. Upon completion of the FST all animals were euthanized. A timeline of this experimental cohort is described in FIG. 8A.
The experiment was conducted as described for cohort 1 for the first 13 days of injections. There are a number of notable differences in experimental procedures between the two cohorts of animals to be highlighted. […] Finally, the dose of 5-MeO-DMT was reduced to 10 mg/kg. […]
The FST apparatus consisted of a clear Plexiglas cylinder measuring 80 cm tall, 20 cm in diameter and filled with 40 cm of 24+1° C. water. […] 24 hours later, rats were again placed in the FST apparatus for 5 min and their activity was video recorded (FIG. 12A-12B). Each video was scored for immobility, swimming, and climbing behavior by trained blinded observers.

[1] = hippocampus, 120 h, all treatment groups

SMILES | 5-HT1AR expression (5-HT1AR; hippocampus, 24 h, 10 mg/kg 5-MeO-DMT alone (decrease)) | 5-HT1AR expression (5-HT1AR; hippocampus, 24 h, 20 mg/kg 5-MeO-DMT alone) | 5-HT1AR expression (5-HT1AR; hippocampus, 24 h, cocaine + either 5-MeO-DMT concentration (10 or 20 mg/kg)) | 5-HT1AR expression (5-HT1AR; [1]) | immobility or time spent swimming (rats) | climbing time (rats; cocaine and 5-MeO-DMT (10 mg/kg) combination relative to control) | 5-HT1AR expression (5-HT1AR; amygdala, 24 h, cocaine, p=0.0172, no post hoc differences) | 5-HT1AR expression (5-HT1AR; amygdala, 120 h, cocaine) | 5-HT1AR expression (5-HT1AR; hippocampus, 24 h, repeated cocaine)
COc1ccc2[nH]cc(CCN(C)C)c2c1 [5-MeO-DMT, 5-methoxy-N,N-dimethyltryptamine] | only the 10 mg/kg concentration achieves significance | trend towards decreasing expression levels | restoring receptor expression to levels comparable to control | equal across treatment groups | no differences in immobility or time spent swimming | significant increase in climbing time |  |  | 
COC(=O)[C@H]1[C@@H](OC(=O)c2ccccc2)C[C@@H]2CC[C@H]1N2C.Cl [cocaine, cocaine hydrochloride, reference compound] |  |  |  | equal across treatment groups | no differences in immobility or time spent swimming |  | significant cocaine effect | does not persist to 120 hours | decreased 5-HT1AR expression
